# Reference: patent publication US9309236B2, “PI-kinase inhibitors with broad spectrum anti-infective activity” (The Board of Trustees of the Leland Stanford Junior …, priority 2011, dated 2016)
# Like-named read-outs stand apart in the source and are kept apart here.
# Assays:
# [1] = Cell toxicity (CC50), Table 3; type: cell-based; conditions: human, Huh7.5 cells
# Protocol: (§1) The compounds of Table 1 were prepared according to the methods described above.
# HCV genotype 2a = test: microbe, parasite or virus in culture; type: cell-based; conditions: luciferase reporter assay, read-out: 2a EC50
# Protocol: Anti-HCV assays are performed as described by Cho et al. “Identification of a class of HCV inhibitors directed against the nonstructural protein NS4B.” Sci. Transl.
# as §1
# [2] = Hepatitis C virus, Huh7.5, HCV genotype 2a in Huh7.5 cells
Structure (SMILES),CC50 [1] [nM],EC50 (HCV genotype 2a; [2]) [nM],EC50 (HCV genotype 2a; HCV genotype 2a in Huh7.5 cells) [nM]
COc1ccc(-c2sc(NC(=O)CC3CCCCC3)nc2C)cc1S(=O)(=O)Nc1ccc(O)cc1 [AB3680],54000,> 1000,–
COc1ccc(-c2sc(NC(=O)CC3CCCCC3)nc2C)cc1S(=O)(=O)Nc1cccc(O)c1 [AB3826],–,< 200,–
COc1ccc(-c2sc(NC(=O)CCC3CCCC3)nc2C)cc1S(=O)(=O)Nc1cccc(O)c1 [AB3837],22000,200 to 1000,–
COc1ccc(-c2sc(NC(=O)C3CCCC3)nc2C)cc1S(=O)(=O)Nc1cnc(OC)c(C)c1 [AB3864],–,200 to 1000,–
COc1ccc(-c2sc(NC3CCCCC3)nc2C)cc1S(=O)(=O)Nc1cnc(Cl)c(C)c1 [AB3946],–,200 to 1000,–
COc1ccc(-c2sc(NC3CCCCC3)nc2C)cc1S(=O)(=O)Nc1cnc(OC)c(C)c1 [AB3948],–,200 to 1000,–
COc1cc(C)c(NS(=O)(=O)c2cc(-c3sc(NC4CCCCC4)nc3C)ccc2OC)cn1 [AB3950],12000,< 200,–
COc1ccc(NS(=O)(=O)c2cc(-c3sc(NC4CCCCC4)nc3C)ccc2OC)cn1 [AB3957],9000,200 to 1000,–
COc1ccc(-c2sc(NC(C)C)nc2C)cc1S(=O)(=O)Nc1cnc(Cl)c(C)c1 [AB3977],–,200 to 1000,–
COc1cc(C)c(NS(=O)(=O)c2cc(-c3sc(NC(C)C)nc3C)ccc2OC)cn1 [AB3979],–,200 to 1000,–
COc1ccc(-c2sc(NC3CCCCC3)nc2C)cc1S(=O)(=O)Nc1ccc(Cl)nc1 [AB4024],–,200 to 1000,–
COc1ccccc1NS(=O)(=O)c1cc(-c2sc(NC3CCCCC3)nc2C)ccc1OC [AB4025],13000,200 to 1000,–
COc1ccc(-c2sc(NC(=O)C3CCCC3)nc2C)cc1S(=O)(=O)Nc1ccc(Cl)nc1 [AB4050],–,200 to 1000,–
COc1ccccc1NS(=O)(=O)c1cc(-c2sc(NC(=O)C3CCCC3)nc2C)ccc1OC [AB4051],–,200 to 1000,–
COc1ccc(-c2sc(NC3CCCCC3)nc2C)cc1S(=O)(=O)Nc1cnc(F)cc1C [AB4052],–,< 200,–
COc1ccc(NS(=O)(=O)c2cc(-c3sc(NC4CCCCC4)nc3C)ccc2OC)c(OC)n1 [AB4053],–,200 to 1000,–
COc1ccc(NS(=O)(=O)c2cc(-c3sc(NC(=O)C4CCCC4)nc3C)ccc2OC)c(OC)n1 [AB4054],–,200 to 1000,–
COc1ccc(-c2sc(NC3CCCCC3)nc2C)cc1S(=O)(=O)Nc1ccc(C)cc1 [AB4106],58500,200 to 1000,–
COc1cc(C)c(NS(=O)(=O)c2cc(-c3sc(NC(=O)CC4CCCC4)nc3C)ccc2OC)cn1 [AB4107],–,200 to 1000,–
COc1ccc(-c2sc(NC(=O)CC3CCCC3)nc2C)cc1S(=O)(=O)Nc1cnc(Cl)c(C)c1 [AB4108],–,200 to 1000,–
COc1ccc(-c2sc(NC(=O)CC3CCCC3)nc2C)cc1S(=O)(=O)Nc1cccc(O)c1 [AB4109],20700,200 to 1000,–
COc1ccc(NS(=O)(=O)c2cc(-c3sc(NC(=O)CC4CCCC4)nc3C)ccc2OC)c(C)c1 [AB4110],–,200 to 1000,–
COc1ccc(-c2sc(NC(=O)CC3CCCC3)nc2C)cc1S(=O)(=O)Nc1cnc(F)cc1C [AB4111],–,200 to 1000,–
COc1cc(C)c(NS(=O)(=O)c2cc(-c3sc(NC(=O)CC4CCCCC4)nc3C)ccc2OC)cn1 [AB4112],–,200 to 1000,–
COc1ccc(-c2sc(NC(=O)CC3CCCCC3)nc2C)cc1S(=O)(=O)Nc1cnc(Cl)c(C)c1 [AB4113],–,200 to 1000,–

Structure (SMILES),CC50 [1] [nM],EC50 (HCV genotype 2a; [2]) [nM],EC50 (HCV genotype 2a; HCV genotype 2a in Huh7.5 cells) [nM]
COc1ccc(-c2sc(NC(=O)CC3CCCCC3)nc2C)cc1S(=O)(=O)Nc1cccc(O)c1 [AB4114],–,–,200 to 1000
COc1ccc(NS(=O)(=O)c2cc(-c3sc(NC(=O)CC4CCCCC4)nc3C)ccc2OC)c(C)c1 [AB4115],–,200 to 1000,–
COc1ccc(-c2sc(NC(=O)CC3CCCCC3)nc2C)cc1S(=O)(=O)Nc1cnc(F)cc1C [AB4116],–,200 to 1000,–
COc1ccc(-c2sc(NC3CCCCCC3)nc2C)cc1S(=O)(=O)Nc1cccc(O)c1 [AB4139],–,200 to 1000,–
COc1ccc(NS(=O)(=O)c2cc(-c3sc(NC4CCCCCC4)nc3C)ccc2OC)c(C)c1 [AB4140],–,200 to 1000,–
COc1ccc(-c2sc(NC3CCCCCC3)nc2C)cc1S(=O)(=O)Nc1cnc(Cl)c(C)c1 [AB4141],–,200 to 1000,–
COc1ccc(-c2sc(NC3CCCCCC3)nc2C)cc1S(=O)(=O)Nc1ccc(Cl)cc1F [AB4145],–,200 to 1000,–
COc1ccc(-c2sc(NC(=O)CC3CCCC3)nc2C)cc1S(=O)(=O)Nc1ccc(Cl)cc1F [AB4171],–,200 to 1000,–
COc1ccc(-c2sc(NC3CCCCC3)nc2C)cc1S(=O)(=O)NC1CCNCC1 [AB4173],–,> 1000,–
COc1ccc(-c2sc(NC3CCCCC3)nc2C)cc1S(=O)(=O)NC1CCCNC1 (centres unmarked) [AB4174],–,> 1000,–
COc1ccc(-c2sc(NC(=O)C3CCCC3)nc2C)cc1S(=O)(=O)NC1CCNCC1 [AB4178],–,> 1000,–
COc1ccc(-c2sc(NC(=O)C3CCCC3)nc2C)cc1S(=O)(=O)NC1CCCNC1 (centres unmarked) [AB4179],–,> 1000,–
COc1ccc(-c2sc(NC(=O)C3CCCC3)nc2C)cc1S(=O)(=O)Nc1ccc(Cl)cc1 [AB4185],–,> 1000,–
COc1ccc(-c2sc(NCC3CCCCC3)nc2C)cc1S(=O)(=O)Nc1cnc(F)cc1C [AB4225],–,200 to 1000,–
COc1ccc(-c2sc(NCC3CCCCC3)nc2C)cc1S(=O)(=O)Nc1cnc(Cl)c(C)c1 [AB4226],–,200 to 1000,–
COc1ccc(-c2sc(NCC3CCCCC3)nc2C)cc1S(=O)(=O)NC1CCCNC1 (centres unmarked) [AB4227],–,> 1000,–
COc1ccc(-c2sc(NCC3CCCCC3)nc2C)cc1S(=O)(=O)NCC1CCNCC1 [AB4228],–,> 1000,–
COc1ccc(-c2sc(NCC3CCCCC3)nc2C)cc1S(=O)(=O)Nc1cnc(Cl)c(F)c1 [AB4229],–,> 1000,–
COc1ccc(-c2sc(NCC3CCCCC3)nc2C)cc1S(=O)(=O)NC1CCNCC1 [AB4237],–,> 1000,–
COc1ccc(-c2sc(CC3CCCCC3)nc2C)cc1S(=O)(=O)Nc1cnc(Cl)c(C)c1 [AB4239],–,200 to 1000,–
COc1ccc(-c2sc(CC3CCCCC3)nc2C)cc1S(=O)(=O)NC1CCNCC1 [AB4240],–,> 1000,–
COc1ccc(-c2sc(CC3CCCCC3)nc2C)cc1S(=O)(=O)NC1CCCNC1 (centres unmarked) [AB4241],–,> 1000,–
COc1ccc(-c2sc(CC3CCCCC3)nc2C)cc1S(=O)(=O)Nc1ccc(Cl)c(F)c1 [AB4242],–,200 to 1000,–
COc1ccc(-c2sc(CC3CCCCC3)nc2C)cc1S(=O)(=O)Nc1ccc(Cl)c(C)c1 [AB4243],–,200 to 1000,–
